Reference: patent US20200060276A1, “THIAZOLE COMPOUND AND HERBICIDE” (OAT Agrio Co., Ltd., priority 2017, published 2020)

Tests used:
Type in all cases: in vivo
[1] = test system: Echinochloa crus-galli (L.) P. Beauv. var. formosensis Ohwi; assay: Test for Herbicidal Effect in Flooding Treatment (#2), ECHDG at 2-2.5 leaf stage; conditions: for ECHDG (2-2.5L) #2 herbicidal effect (growth inhibition grade): flooding treatment at 2-2.5 leaf stage, dose 0.2 kg/ha, visual observation on day 21; for ECHDG (2-2.5L) #2 herbicidal effect (growth inhibition rating 0-5): flooding treatment #2, 2-2.5 leaf stage
Method: (#2) Test for Herbicidal Effect in Flooding Treatment: Styrol cups each having an opening diameter of 13 cm (about 130 cm^2) were respectively filled with muddy soil (500 ml). Water (about 300 ml) was mixed with the soil such that the soil was flooded. After the soil stood still for 24 hours, Echinochloa crus-galli (L.) P. Beauv. var. formosensis Ohwi was seeded. When the Echinochloa crus-galli (L.) P. Beauv. var. formosensis Ohwi grew to reach 2-2.5 leaf stage, chemical solutions were dropped on the entire surface of treatment sections, so that each section is treated with 1 ml of the respective chemical solution (a dose of 0.2 kg/ha). Each of the chemical solutions was prepared by dissolving associated one of the compounds of the present invention in acetone, followed by dilution with water containing Tween 80 g. After the treatment, the plants were grown in a glasshouse. On day 21, a survey was conducted on the herbicidal activity by visual observation, and evaluation was made according to the following criteria. 0: Growth inhibition effect is less than 10%. 1: Growth inhibition effect is equal to or greater than 10%, and less than 30%. 2; Growth inhibition effect is equal to or greater than 30%, and less than 50%. 3: Growth inhibition effect equal to or greater than 50%, and less than 70%. 4: Growth inhibition effect is equal to or greater than 70%, and less than 90%. 5: Growth inhibition effect is equal to or greater than 90%, or complete withering is achieved. ECHDG=Echinochloa crus-galli (L.) P. Beauv. var. formosensis Ohwi, MONVA=Monochoria vaginalis, SCIJU=Scirpus juncoides, CYMIC=Cyperus microiria. The herbicidal activity of the following comparative compounds A and B (the compounds disclosed Japanese Unexamined Patent Publication No. 2003-096059) were evaluated in a manner pursuant to Test Example 1. (#2).

[2] = test system: Echinochloa crus-galli (L.) P. Beauv. var. formosensis Ohwi; assay: Test for Herbicidal Effect in Flooding Treatment (#1), ECHDG; conditions: for ECHDG #1 herbicidal effect (growth inhibition grade): flooding treatment at seeding, dose 2 kg/ha, visual observation on day 21; for ECHDG #1 herbicidal effect (growth inhibition rating 0-5): flooding treatment #1
Method: (§1) (#1) Test for Herbicidal Effect in Flooding Treatment: Styrol cups each having an opening diameter of 8 cm (about 52 cm^2) were respectively filled with soil (45 ml) which had been passed through a sieve (2 mm). Water (about 115 ml) was mixed with the soil such that the soil was flooded. After the soil stood still for 24 hours, Monochoria vaginalis, Echinochloa crus-galli (L.) P. Beauv. var. formosensis Ohwi, Cyperus difformis (umbrella sedge), and Scirpus juncoides were seeded. Each of the compounds of the present invention was dissolved in acetone, and the obtained product was then diluted with water containing Tween 80®. Each of the resultant chemical solutions was dropped on the entire surface of an associated one of treatment sections, so that each section was treated with 1 ml of the respective chemical solution (a dose of 2 kg/ha). After the treatment, the plants were grown in a glasshouse. On day 21, a survey was conducted on the herbicidal activity by visual observation, and evaluation was made according to the following criteria. 0: Growth inhibition effect is less than 10%. 1: Growth inhibition effect is equal to or greater than 10%, and less than 30%. 2; Growth inhibition effect is equal to or greater than 30%, and less than 50%. 3: Growth inhibition effect equal to or greater than 50%, and less than 70%. 4: Growth inhibition effect is equal to or greater than 70%, and less than 90%. 5: Growth inhibition effect is equal to or greater than 90%, or complete withering is achieved. ECHDG=Echinochloa crus-galli (L.) P. Beauv. var. formosensis Ohwi, MONVA=Monochoria vaginalis, SCIJU=Scirpus juncoides, CYMIC=Cyperus microiria.

[3] = test system: Scirpus juncoides; assay: Test for Herbicidal Effect in Flooding Treatment (#1), SCIJU; conditions: for SCIJU #1 herbicidal effect (growth inhibition grade): flooding treatment at seeding, dose 2 kg/ha, visual observation on day 21; for SCIJU #1 herbicidal effect (growth inhibition rating 0-5): flooding treatment #1
Method: as §1

O=S(=O)(Cc1c(Cl)ccc(OC(F)F)c1F)c1ncc(Cl)s1 [Compound 1C-180]
ECHDG (2-2.5L) #2 herbicidal effect (growth inhibition grade) [1]: 5 (Growth inhibition effect is equal to or greater than 90%, or complete withering is achieved)
ECHDG #1 herbicidal effect (growth inhibition grade) [2]: 5 (Growth inhibition effect is equal to or greater than 90%, or complete withering is achieved)
SCIJU #1 herbicidal effect (growth inhibition grade) [3]: 5 (Growth inhibition effect is equal to or greater than 90%, or complete withering is achieved)

O=S(=O)(Cc1c(F)cccc1OC(F)(F)F)c1ncc(Br)s1 [Compound 1C-158]
ECHDG (2-2.5L) #2 herbicidal effect (growth inhibition grade) [1]: 5 (Growth inhibition effect is equal to or greater than 90%, or complete withering is achieved)
ECHDG #1 herbicidal effect (growth inhibition grade) [2]: 5 (Growth inhibition effect is equal to or greater than 90%, or complete withering is achieved)
SCIJU #1 herbicidal effect (growth inhibition grade) [3]: 5 (Growth inhibition effect is equal to or greater than 90%, or complete withering is achieved)

O=S(=O)(Cc1c(Cl)cccc1OC(F)(F)F)c1ncc(Br)s1 [Compound 1C-159]
ECHDG (2-2.5L) #2 herbicidal effect (growth inhibition grade) [1]: 5 (Growth inhibition effect is equal to or greater than 90%, or complete withering is achieved)
ECHDG #1 herbicidal effect (growth inhibition grade) [2]: 5 (Growth inhibition effect is equal to or greater than 90%, or complete withering is achieved)
SCIJU #1 herbicidal effect (growth inhibition grade) [3]: 5 (Growth inhibition effect is equal to or greater than 90%, or complete withering is achieved)

O=S(=O)(Cc1c(F)cccc1OS(=O)(=O)C(F)(F)F)c1ncc(Cl)s1 [Compound 1C-185]
ECHDG (2-2.5L) #2 herbicidal effect (growth inhibition grade) [1]: 5 (Growth inhibition effect is equal to or greater than 90%, or complete withering is achieved)
ECHDG #1 herbicidal effect (growth inhibition grade) [2]: 5 (Growth inhibition effect is equal to or greater than 90%, or complete withering is achieved)
SCIJU #1 herbicidal effect (growth inhibition grade) [3]: 5 (Growth inhibition effect is equal to or greater than 90%, or complete withering is achieved)

COc1cccc(Cl)c1CS(=O)(=O)c1ncc(Br)s1 [Compound 1C-151]
ECHDG (2-2.5L) #2 herbicidal effect (growth inhibition grade) [1]: 5 (Growth inhibition effect is equal to or greater than 90%, or complete withering is achieved)
ECHDG #1 herbicidal effect (growth inhibition grade) [2]: 5 (Growth inhibition effect is equal to or greater than 90%, or complete withering is achieved)
SCIJU #1 herbicidal effect (growth inhibition grade) [3]: 5 (Growth inhibition effect is equal to or greater than 90%, or complete withering is achieved)

[O-][S+](Cc1c(F)cccc1OC(F)(F)F)c1ncc(Cl)s1 (stereo not drawn) [Compound 1B-5]
ECHDG (2-2.5L) #2 herbicidal effect (growth inhibition rating 0-5) [1]: 5 (Growth inhibition effect is equal to or greater than 90%, or complete withering is achieved)
ECHDG #1 herbicidal effect (growth inhibition rating 0-5) [2]: 5 (Growth inhibition effect is equal to or greater than 90%, or complete withering is achieved)
SCIJU #1 herbicidal effect (growth inhibition rating 0-5) [3]: 5 (Growth inhibition effect is equal to or greater than 90%, or complete withering is achieved)

O=C(O)COc1cccc(F)c1CS(=O)(=O)c1ncc(Cl)s1 [Compound 1C-183]
ECHDG (2-2.5L) #2 herbicidal effect (growth inhibition grade) [1]: 3 (Growth inhibition effect equal to or greater than 50%, and less than 70%)
ECHDG #1 herbicidal effect (growth inhibition grade) [2]: 5 (Growth inhibition effect is equal to or greater than 90%, or complete withering is achieved)
SCIJU #1 herbicidal effect (growth inhibition grade) [3]: 5 (Growth inhibition effect is equal to or greater than 90%, or complete withering is achieved)

O=S(=O)(Cc1ccccc1OC(F)(F)C(F)F)c1ncc(Cl)s1 [Compound 1C-57]
ECHDG (2-2.5L) #2 herbicidal effect (growth inhibition grade) [1]: 5 (Growth inhibition effect is equal to or greater than 90%, or complete withering is achieved)
ECHDG #1 herbicidal effect (growth inhibition grade) [2]: 5 (Growth inhibition effect is equal to or greater than 90%, or complete withering is achieved)
SCIJU #1 herbicidal effect (growth inhibition grade) [3]: 5 (Growth inhibition effect is equal to or greater than 90%, or complete withering is achieved)

[O-][S+](Cc1c(Cl)cccc1OC(F)(F)F)c1ncc(Cl)s1 (stereo not drawn) [Compound 1B-6]
ECHDG (2-2.5L) #2 herbicidal effect (growth inhibition rating 0-5) [1]: 5 (Growth inhibition effect is equal to or greater than 90%, or complete withering is achieved)
ECHDG #1 herbicidal effect (growth inhibition rating 0-5) [2]: 5 (Growth inhibition effect is equal to or greater than 90%, or complete withering is achieved)
SCIJU #1 herbicidal effect (growth inhibition rating 0-5) [3]: 5 (Growth inhibition effect is equal to or greater than 90%, or complete withering is achieved)

O=S(=O)(Cc1c(F)cccc1OCF)c1ncc(Cl)s1 [Compound 1C-179]
ECHDG (2-2.5L) #2 herbicidal effect (growth inhibition grade) [1]: 5 (Growth inhibition effect is equal to or greater than 90%, or complete withering is achieved)
ECHDG #1 herbicidal effect (growth inhibition grade) [2]: 5 (Growth inhibition effect is equal to or greater than 90%, or complete withering is achieved)
SCIJU #1 herbicidal effect (growth inhibition grade) [3]: 5 (Growth inhibition effect is equal to or greater than 90%, or complete withering is achieved)

O=S(=O)(Cc1ccccc1OC(F)F)c1ncc(Br)s1 [Compound 1C-152]
ECHDG (2-2.5L) #2 herbicidal effect (growth inhibition grade) [1]: 5 (Growth inhibition effect is equal to or greater than 90%, or complete withering is achieved)
ECHDG #1 herbicidal effect (growth inhibition grade) [2]: 5 (Growth inhibition effect is equal to or greater than 90%, or complete withering is achieved)
SCIJU #1 herbicidal effect (growth inhibition grade) [3]: 5 (Growth inhibition effect is equal to or greater than 90%, or complete withering is achieved)

CC(c1c(F)cccc1OC(F)F)S(=O)(=O)c1ncc(Cl)s1 (racemic) [Compound 1C-140]
ECHDG (2-2.5L) #2 herbicidal effect (growth inhibition grade) [1]: 5 (Growth inhibition effect is equal to or greater than 90%, or complete withering is achieved)
ECHDG #1 herbicidal effect (growth inhibition grade) [2]: 5 (Growth inhibition effect is equal to or greater than 90%, or complete withering is achieved)
SCIJU #1 herbicidal effect (growth inhibition grade) [3]: 5 (Growth inhibition effect is equal to or greater than 90%, or complete withering is achieved)

O=S(=O)(Cc1c(Cl)cc(OC(F)F)cc1Cl)c1ncc(Cl)s1 [Compound 1C-175]
ECHDG (2-2.5L) #2 herbicidal effect (growth inhibition grade) [1]: 5 (Growth inhibition effect is equal to or greater than 90%, or complete withering is achieved)
ECHDG #1 herbicidal effect (growth inhibition grade) [2]: 5 (Growth inhibition effect is equal to or greater than 90%, or complete withering is achieved)
SCIJU #1 herbicidal effect (growth inhibition grade) [3]: 5 (Growth inhibition effect is equal to or greater than 90%, or complete withering is achieved)

[O-][S+](Cc1ccccc1OC(F)F)c1ncc(Br)s1 (stereo not drawn) [Compound 1B-18]
ECHDG (2-2.5L) #2 herbicidal effect (growth inhibition rating 0-5) [1]: 5 (Growth inhibition effect is equal to or greater than 90%, or complete withering is achieved)
ECHDG #1 herbicidal effect (growth inhibition rating 0-5) [2]: 5 (Growth inhibition effect is equal to or greater than 90%, or complete withering is achieved)
SCIJU #1 herbicidal effect (growth inhibition rating 0-5) [3]: 5 (Growth inhibition effect is equal to or greater than 90%, or complete withering is achieved)

[O-][S+](Cc1c(OCC(F)(F)F)cccc1C(F)(F)F)c1ncc(Cl)s1 (stereo not drawn) [Compound 1B-11]
ECHDG (2-2.5L) #2 herbicidal effect (growth inhibition rating 0-5) [1]: 5 (Growth inhibition effect is equal to or greater than 90%, or complete withering is achieved)
ECHDG #1 herbicidal effect (growth inhibition rating 0-5) [2]: 5 (Growth inhibition effect is equal to or greater than 90%, or complete withering is achieved)
SCIJU #1 herbicidal effect (growth inhibition rating 0-5) [3]: 5 (Growth inhibition effect is equal to or greater than 90%, or complete withering is achieved)

CCS(=O)(=O)c1cccc(F)c1CS(=O)(=O)c1ncc(Cl)s1 [Compound 1C-174]
ECHDG (2-2.5L) #2 herbicidal effect (growth inhibition grade) [1]: 4 (Growth inhibition effect is equal to or greater than 70%, and less than 90%)
ECHDG #1 herbicidal effect (growth inhibition grade) [2]: 5 (Growth inhibition effect is equal to or greater than 90%, or complete withering is achieved)
SCIJU #1 herbicidal effect (growth inhibition grade) [3]: 5 (Growth inhibition effect is equal to or greater than 90%, or complete withering is achieved)
